Reference: paper PMC4129108, “The natural triterpene 3β,6β,16β-trihydroxy-lup-20(29)-ene obtained from the flowers of Combretum leprosum induces apoptosis in MCF-7 breast cancer cells” (BMC Complementary and Alternative Medicine, 2014)
Converted amounts (≈) assume the structure as drawn.

Assays:
HepG2 (hepatoma) = test: XTT cell viability assay, HepG2; assay type: cell-based, human; conditions: for IC50: Homo sapiens, XTT
Description: The human cell lines MCF-7 (breast adenocarcinoma), HepG2 (hepatoma), T24 (bladder cancer), CACO-2 (colorectal adenocarcinoma) and MRC5 (lung normal fibroblast) were obtained from the Rio de Janeiro Cell Bank (Rio de Janeiro, RJ, Brazil). The HCT116 cell (colorectal carcinoma), and HT29 cell (colorectal adenocarcinoma) were kindly provided by Dr. Annette K. Larsen (Institut National de la Santé et de la Recherche Médicale - INSERM, Paris, França). All cell lines except MCF-7 were grown in DMEM supplemented with 10% or 20% (for CACO-2) FBS, 100 units.mL^-1 penicillin and 100 μg.mL^-1 streptomycin at 37°C in a humidified atmosphere of 5% CO2. MCF-7 cells were maintained in RPMI-1640 supplemented with 20% FBS at the same conditions described above.
The cytotoxic potential of the TTHL was evaluated by the XTT assay in human tumor cell lines as well as in MRC5 normal fibroblasts. Cells (1 × 10^4 cells) were seeded on 96-well plates in growth medium and incubated overnight. Afterwards, TTHL (0.5, 1.0, 2.5, 5.0, and 10 μg/mL) was added to each well and incubated for 24, 48, 72, and 120 h. Mitoxantrone, a cytostatic anthracenedione that intercalates in DNA and increases the incidence of double-strand breaks by stabilizing the cleavable complex of topoisomerase II and DNA, was used as positive control. At the end of each treatment, cell viability was assessed according to the manufacturer’s instructions. Briefly, after discarding the medium, 1 mL of XTT labeling mixture was added to the cells and incubated for 2 h at 37°C. Absorbance was measured with a SpectraMax reader (Bio-Rad, USA) at a test wavelength of 492 nm (A492) and a reference wavelength of 690 nm (A690). The final result corresponds to A492-A690. The absorbance of negative control cells was set as 100% viability, and the values for treated cells were calculated as a percentage of the control.
The IC20, IC50, and IC80 values and their 95% confidence intervals (CI 95%) were obtained by nonlinear regression using GraphPad Prism v5 program (Intuitive Software for Science, San Diego, CA, USA). Selective index (SI) was calculated by IC50 in MRC5 cells/IC50 in tumoral cells. All experiments were independently repeated at least three times, with triplicate samples for each treatment. Results are expressed as means ± standard deviation (SD). Data were analyzed by one-way analysis of variance (ANOVA), and means were compared using Tukey test, with P ≤ 0.05 considered as statistically significant.

MCF-7 cells [1] = test: Cell cycle distribution by flow cytometric analysis (PI); assay type: cell-based, human; conditions: MCF-7, 24 h
Description: (§1) Cells (2 × 10^5 cells/mL) were seeded on 6-well tissue culture plates, and grown for 1 day up to 70–80% confluence before treatment with the test substance. The TTHL was added to medium with FBS to obtain the different concentrations, and cells were treated at 37°C for 24 h in humidified atmosphere containing 5% CO2.
Cell cycle distribution determination analysis was performed as previously described. After treatment, cells were trypsinized, centrifuged and resuspended in ice-cold 70% ethanol, and left for 24 h at 4°C. Ethanol-fixed cells were centrifuged, washed with PBS and resuspended in buffer containing 0.2 mg/mL RNAse, 50 μg/mL PI and 0.1% Triton X-100, and incubated for 30 min at room temperature. Samples were analyzed on a FACS Calibur flow cytometer (Becton-Dikinson, San Fransisco, CA) using the CellQuest software. A total of 10,000 events were measured per sample. The data were analyzed to determine the percentage of cells at each phase of the cell cycle (sub-G1, G1, S and G2/M).

MCF-7 cells [2] = test: Alkaline comet assay; assay type: cell-based, human; conditions: MCF-7, 24 h
Description: as §1
The alkaline comet assay was performed as previously described. Briefly, 10 μL of cell suspension (1 × 10^4 cells) treated with TTHL were mixed with 90 μL LMP agarose, spread on a normal agarose precoated microscope slide, and placed at 4°C for 5 min to allow for solidification. Cells were lysed in high concentration of salt and detergent (2.5 M NaCl, 100 mM Na2EDTA, 10 mM Tris with 1% Triton X-100 and 10% DMSO freshly added) for 2 h. Slides were removed from lysing solution and washed three times with PBS. Subsequently, cells were exposed to alkali conditions (300 mM NaOH/1 mM Na2EDTA, pH >13, 30 min, 4°C) to allow DNA unwinding and expression of alkali-labile sites. Electrophoresis was conducted for 25 min at 25 V and 300 mA ([…]). After electrophoresis, the slides were neutralized and silver stained. One hundred cells were scored visually according to the tail length and the amount of DNA present in the tail. Each comet was given an arbitrary value of 0–4 (0, undamaged; 4, maximally damaged), as described by Collins et al.. Damage score was thus assigned to each sample and can range from 0 (completely undamaged: 100 cells × 0) to 400 (with maximum damage: 100 cells × 4). International guidelines and recommendations for the comet assay consider that visual scoring of comets is a well-validated evaluation method, as it is highly correlated with computer-based image analysis.

[3] = tested on: S. cerevisiae EG133 (sod1Δsod2Δ); test: Yeast survival assay, EG133 (sod1Δsod2Δ); assay type: cell-based, Saccharomyces cerevisiae; conditions: for survival (percentage in relation to negative control): STAT cells, 1 h in PBS 30°C
Description: Media, solutions and buffers were prepared according to Burke et al.. YPD medium (0.5% yeast extract, 2% peptone, 2% glucose) was used for routine growth. Synthetic medium SC (0.67% yeast nitrogen base, 0.1% ammonium sulfate, 2% glucose) supplemented with the appropriate amino acids and bases ([…]) was used for the detection of mutations.
Stationary phase (STAT) cultures were obtained by inoculation of a single colony into liquid YPD. We chose to work in the stationary phase of growth because this resembles most cells of multicellular organisms in important aspects: (i) most energy comes from mitochondrial respiration; (ii) the cells have left the active cell cycle and have entered the Go phase; and (iii) damage accumulates over time.
STAT cells (1 × 10^8 cells/mL) were exposed to TTHL (10–500 μg/mL) and incubated under growth conditions for 1 h in PBS at 30°C. Cells were then washed and treated with H2O2 (5 mM) in PBS for another hour. Suitable aliquots were plated in triplicate on solid YPD (2–3 days, 30°C) and colony-forming units were counted. Sensitivity was expressed as a percentage of survival in relation to the negative control (solvent).

C=C(C)[C@@H]1CC[C@@]2(C)[C@H]1[C@H]1CC[C@@H]3[C@@]4(C)CC[C@H](O)C(C)(C)[C@@H]4[C@H](O)C[C@@]3(C)[C@]1(C)C[C@@H]2O [TTHL, 3β,6β,16β-trihydroxy-lup-20(29)-ene]
IC50 (HepG2 (hepatoma); HepG2, 24 h treatment): 6.5 ± 0.43 µg/mL (≈ 14.2 µM)
IC50 (HepG2 (hepatoma); HepG2, 48 h treatment): 6.1 ± 0.28 µg/mL (≈ 13.3 µM)
IC50 (HepG2 (hepatoma); HepG2, 72 h treatment): 5.45 ± 0.35 µg/mL (≈ 11.9 µM)
IC50 (HepG2 (hepatoma); HepG2, 120 h treatment): 0.88 ± 0.13 µg/mL (≈ 1.92 µM)
Selectivity index (SI) (HepG2 (hepatoma); IC50 in MRC5 cells/IC50 in HepG2, 24 h): 1.3 X
Selectivity index (SI) (HepG2 (hepatoma); IC50 in MRC5 cells/IC50 in HepG2, 48 h): 1 X
Selectivity index (SI) (HepG2 (hepatoma); IC50 in MRC5 cells/IC50 in HepG2, 72 h): 1 X
Selectivity index (SI) (HepG2 (hepatoma); IC50 in MRC5 cells/IC50 in HepG2, 120 h): 8 X
change in cell cycle progression (MCF-7 cells [1]; TTHL at IC20, IC50, IC80): no significant change in cell cycle progression
sub-G1 population (MCF-7 cells [1]; seen at IC50 and IC80, concentration-dependent): significant increase in the sub-G1 population
DNA damage (alkaline comet assay) (MCF-7 cells [2]; TTHL at IC20): does not generate DNA-strand breaks
DNA damage (alkaline comet assay) (MCF-7 cells [2]; TTHL at IC50): induces signifcant DNA damage
DNA damage (alkaline comet assay) (MCF-7 cells [2]; TTHL at IC80): induces signifcant DNA damage
survival (percentage in relation to negative control) ([3]; TTHL 10 μg/mL): 79.35 ± 2.19 %
survival (percentage in relation to negative control) ([3]; TTHL 50 μg/mL): 67.85 ± 10.54 %
survival (percentage in relation to negative control) ([3]; TTHL 100 μg/mL): 58.15 ± 3.89 %
survival (percentage in relation to negative control) ([3]; TTHL 500 μg/mL): 41.45 ± 4.03 %
sensitivity of the strain to TTHL (in words) ([3]; deficient in superoxide dismutase): hypersensitive
